Values of other authors, collected in patent publication US5122376A, “Calcitonin gene related peptide” (ISF Societa per Azioni, priority 1989, dated 1992).

Conditions: compared with sodium caprate

SMILES: CC1(C)[C@@H](O)CC[C@]2(C)[C@H]3C(=O)C=C4[C@@H]5C[C@@](C)(C(=O)[O-])CC[C@]5(C)CC[C@@]4(C)[C@]3(C)CC[C@@H]12.[Na+] [sodium glycyrrhetinate]
- absorption-enhancing agent for insulin (nasal absorption): weaker than sodium caprate
